# Reference: PMC6630718, “Discovery of Novel UV-Filters with Favorable Safety Profiles in the 5-Arylideneimidazolidine-2,4-dione Derivatives Group” (Molecules, 2019)
# Tests used:
# [1] = Photostability in methanol solutions (solar light simulator); format: physicochemical; design: λmax pre-irradiation: unit not given beside the values; details: methanol solution; for % of initial AUC post-irradiation / λmax post-irradiation: 1h irradiation at 500 W/m2
# Protocol: (§1) The photostability evaluation of compounds was performed both in methanol solutions and in macrogol formulations. Irradiation of samples according to previous studies was conducted for 1 h at 500 W/m^2 (cumulative dose of ultraviolet radiation 218 kJ/m^2) with solar light simulator (Suntest CPS+, Atlas, Linsengericht, Germany) equipped with an optical filter cutting off wavelengths shorter than 290 nm and IR-block filter to neutralize thermal effects. The UV absorption spectrum of the samples were analysed post-irradiation and compared with pre-irradiation results. UPLC-MS/MS analyses were also performed.
# (§2) Methanol solutions were tested at concentration 25 or 50 µM in quartz cuvettes with the PTFE stopper to prevent evaporation or leaking of the solvent. Macrogol formulations (2% w/w) were tested on PMMA plates (1.3 mg/cm^2). After post-irradiation measure of UV absorption, exposed and unexposed plates were washed with 5 mL of methanol, then mixtures were filtered and analysed by UPLC-MS/MS. All analyses were performed in duplicates.
# [2] = Photostability in macrogol formulations on PMMA plates (solar light simulator); format: physicochemical; details: for new photoproduct (besides photoisomer), relative peak area: post-irradiation chromatogram
# Protocol: After irradiation of thin layer of formulations applied on PMMA plates, their photoprotective parameters were determined and compared with the pre-irradiation results. The study gives an overview on functional photostability of the tested compounds. It is an important test, because the photostability of some compounds in low concentrated solutions may meaningfully differ from results obtained for higher concentrations used in sunscreen products. […] In the present study both UVB and UVA-absorbers were tested, so the changes in SPFin vitro, UVA PF and AUC after irradiation are taken into account as a measure of photostability.
# as §1, §2
# [3] = Ultraviolet spectroscopy in methanol solutions; format: physicochemical; details: for Absorption Range: scan range 290–400 nm
# Protocol: Spectra with a scan range of 290–400 nm were recorded in 50 or 25 μM methanol solutions, in 1 cm path length, 1.5 mL quartz cuvettes on a U-2800 double beam spectrophotometer (Hitachi, Tokyo, Japan) controlled by UV Solution version 2.2 software. The molar extinction coefficient at maximum absorption (εmax) of tested compounds was determined in methanol as the slope of the linear regression of absorbance vs. concentration of tested compound (from 10 to 50 μM or 2.5 to 30 μM).
# [4] = In vitro photoprotection study of 2% (w/w) macrogol formulations on PMMA plates
# Excerpt: The composition of formulations and concentration of tested compounds were based on their limited solubility. N-monosubstituted compounds 2a–2e were insoluble at desirable concentrations in the typical solvents used in cosmetic formulations such as alcohols, triacetin, surfactants, and co-surfactants. To dissolve compounds 2a and 2b before incorporation to the formulation DMSO: Tween 20 (1:9 w/w) was used, for less soluble 2c–2e it was necessary to use DMSO alone as solvent. […] Thus the detailed composition of the formulations is as follows: F1–Tween 20 43.2%, PEG-400 25%, PEG-1500 25%, Triacetin 4.8%, tested compound 2%; F2–Tween 20 43.2%, PEG-400 25%, PEG-1500 25%, DMSO 4.8%, tested compound 2%; F3–PEG-400 25%, PEG-1500 25%, DMSO 48%, tested compound 2%. Considering the disadvantages of currently reported macrogol formulations and the low concentration achieved for the tested compounds (2%), we plan to work on cosmetic emulsions containing the most promising derivatives at higher concentrations as well as required excipients including preservatives, antioxidants, etc. This research will be carried out in the near future.
# Tested compounds and commercial UV filters as reference standards were incorporated to a neutral macrogel formulation in the concentration of 2%. Prior to the incorporation, compounds 3a–3e and 4f–4h and reference UV-filters were dissolved in a triacetin:Tween 20 (1:9) solvent system. For compounds 2a–2e it was necessary to use DMSO. The final composition of the macrogol formulations is presented in the photoprotective activity section.
# In vitro photoprotection study was performed according to EN ISO 24443:2012 [71] with slight modifications. Formulation with tested compound (32.5 mg) was applied on a polymethylmethacrylate plate (PMMA) with the application area 25 cm^2 and 5 µm roughness value to simulate the skin surface (Schonberg GmbH, Hamburg, Germany). As a reference a PMMA plate treated with approximately 15 µL of glycerin was used. Measurements were carried out by reflectance spectrophotometry with SPF-290AS Analyser (Solar Light Company, Glenside, PA, USA) equipped with integrating sphere controlled by WinSPF version X.X. software. For each sample two plates were prepared, absorbance measures were performed on 6 different positions of the plate from 290 to 400 nm with 1 nm steps. The results were expressed as an average of data from 12 scans.
# [5] = after 1 h irradiation at 500 W/m^2, formulation F2 (DMSO 4.8%)
# [6] = after 1 h irradiation at 500 W/m^2, formulation F3 (DMSO 48%)
# [7] = 2% (w/w) macrogol formulation F2 (DMSO 4.8%)
# [8] = after 1 h irradiation at 500 W/m^2, formulation F1
# [9] = 2% (w/w) macrogol formulation F1 (Triacetin 4.8%)
# [10] = 2% (w/w) macrogol formulation F1 (Tween 20, PEG-400, PEG-1500, Triacetin 4.8%)
SMILES,λmax pre-irradiation [1],% of initial AUC post-irradiation [1] [%],λmax post-irradiation [1],melting point [°C],εmax [3] [M⁻¹ cm⁻¹],λmax [3] [nm],Absorption Range [3],"% of Initial AUC [2, 8] [%]","% of Initial SPFin vitro [2, 8] [%]","% of Initial UVA PF [2, 8] [%]","UVA PF [4, 9]","UVA/UVB Ratio [4, 9]","λc (critical wavelength) [4, 9] [nm]","SPFin vitro [4, 10]","new photoproduct (besides photoisomer), relative peak area ([2]; macrogol formulation)",also measured
"CCOC(=O)CN1C(=O)N/C(=C\c2ccc(OC)cc2)C1=O [Compound 2b, Ethyl (Z)-2-(4-(4-methoxybenzylidene)-2,5-dioxoimidazolidin-1-yl)acetate]",334,95.67,341,178 to 179,31920,334,290–372 nm,,,,,,,,,"improvement of the functional photostability ([2]; DMSO in formulation reduced from 48 to 4.8%): 30.2%; % of Initial AUC [2, 5]: 59.55%; % of Initial SPFin vitro [2, 5]: 57.19%; % of Initial UVA PF [2, 5]: 54.31%; % of Initial AUC [2, 6]: 35.28%; % of Initial SPFin vitro [2, 6]: 36.51%; % of Initial UVA PF [2, 6]: 24.13%; decrease of tested parameters (SPFin vitro, UVA PF, AUC) after irradiation ([2]; formulation with DMSO 48% (F3), extreme values): 75.9%; SPFin vitro [4, 7]: 3.20 ± 0.07; UVA PF [4, 7]: 4.29 ± 0.11; UVA/UVB Ratio [4, 7]: 1.20 ± 0.00; λc (critical wavelength) [4, 7]: 363 nm"
"CCOC(=O)CN1C(=O)/C(=C/c2ccccc2)N(CC(=O)OCC)C1=O [Compound 3a, Diethyl 2,2′-((Z)-4-benzylidene-2,5-dioxoimidazolidine-1,3-diyl)diacetate]",295,122.34,301,47 to 49,13980,295,290–335 nm,88.19,83.31,103.50,1.29 ± 0.09,0.16 ± 0.02,331,2.97 ± 0.45,,hypsochromic shift of λmax compared to N-monosubstituted derivatives [3]: 21 nm
"CCOC(=O)CN1C(=O)/C(=C/c2ccc(OCC)cc2)N(CC(=O)OCC)C1=O [Compound 3c, Diethyl 2,2′-((Z)-4-(4-ethoxybenzylidene)-2,5-dioxoimidazolidine-1,3-diyl)diacetate]",321,119.42,329,44 to 46,17010,321,290–367 nm,85.29,88.73,86.59,2.46 ± 0.01,1.05 ± 0.03,370,2.49 ± 0.08,2.8%,
"CCOC(=O)CN1C(=O)/C(=C/c2ccc(OC)cc2OC)N(CC(=O)OCC)C1=O [Compound 3d, Diethyl 2,2′-((Z)-4-(2,4-dimethoxybenzylidene)-2,5-dioxoimidazolidine-1,3-diyl)diacetate]",333,111.55,342,88 to 90,17310,333,290–374 nm,94.01,89.92,97.66,2.35 ± 0.03,1.63 ± 0.01,383,1.84 ± 0.02,no additional peaks besides the photoisomer,
"CCOC(=O)CN1C(=O)/C(=C/c2ccc(OC)c(OC)c2)N(CC(=O)OCC)C1=O [Compound 3e, Diethyl 2,2′-((Z)-4-(3,4-dimethoxybenzylidene)-2,5-dioxoimidazolidine-1,3-diyl)diacetate]",329,129.32,340,80 to 82,14200,329,290–380 nm,79.59,81.28,87.10,2.17 ± 0.11,1.43 ± 0.02,382,1.87 ± 0.08,,
"CCOC(=O)CN1C(=O)/C(=C/C=C/c2ccccc2)N(CC(=O)OCC)C1=O [Compound 4f, Diethyl 2,2′-((Z)-2,4-dioxo-5-((E)-3-phenylallylidene)imidazolidyne-1,3-diyl)diacetate]",354,59.12,354,99 to 100,41477,354,295–389 nm,27.92,62.24,25.98,8.43 ± 1.35,2.58 ± 0.06,381,2.51 ± 0.17,,"decrease of AUC after irradiation [1]: 40.9%; photostability (in words) ([2]; macrogol formulation): unsatisfactory; decrease of AUC after irradiation ([2]; macrogol formulation F1): 72.1%; percentage of photoproducts content ([2]; macrogol formulation, post-irradiation chromatograms): 22.9%"
